Where two headings read alike, the source gives them in different places.
Key:
Format in all cases: cell-based
[1] = target: α1β3F293Cγ2L GABAA receptors (Homo sapiens, UniProt P14867+P28472, F318C); details: β3F293C; […] ETO, 5 μM PRO, […] ALX
[2] = target: α1β3E298Cγ2L GABAA receptors (Homo sapiens, UniProt P14867+P28472, E323C); assay: GABA EC5 enhancement by anesthetics, voltage clamp in Xenopus oocytes; details: β3E298C; […] ETO, 5 μM PRO, […] ALX
[3] = target: T1, α1β3F289Cγ2L GABAA receptors (Homo sapiens, UniProt P14867+P28472, F314C); details: pCMBS + maximal GABA
T1 sequence (P14867 28-456): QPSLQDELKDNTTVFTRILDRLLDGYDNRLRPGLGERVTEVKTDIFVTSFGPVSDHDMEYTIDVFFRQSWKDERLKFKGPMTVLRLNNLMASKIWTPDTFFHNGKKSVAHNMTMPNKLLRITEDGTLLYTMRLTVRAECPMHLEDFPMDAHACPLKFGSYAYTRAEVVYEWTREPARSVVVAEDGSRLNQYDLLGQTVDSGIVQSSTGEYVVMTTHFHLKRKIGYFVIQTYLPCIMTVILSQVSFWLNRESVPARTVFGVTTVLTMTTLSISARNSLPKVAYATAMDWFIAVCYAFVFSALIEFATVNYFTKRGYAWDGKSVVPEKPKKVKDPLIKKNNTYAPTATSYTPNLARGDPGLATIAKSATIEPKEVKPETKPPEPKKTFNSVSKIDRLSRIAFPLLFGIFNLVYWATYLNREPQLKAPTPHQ
T1 sequence (P28472 26-473 F314C): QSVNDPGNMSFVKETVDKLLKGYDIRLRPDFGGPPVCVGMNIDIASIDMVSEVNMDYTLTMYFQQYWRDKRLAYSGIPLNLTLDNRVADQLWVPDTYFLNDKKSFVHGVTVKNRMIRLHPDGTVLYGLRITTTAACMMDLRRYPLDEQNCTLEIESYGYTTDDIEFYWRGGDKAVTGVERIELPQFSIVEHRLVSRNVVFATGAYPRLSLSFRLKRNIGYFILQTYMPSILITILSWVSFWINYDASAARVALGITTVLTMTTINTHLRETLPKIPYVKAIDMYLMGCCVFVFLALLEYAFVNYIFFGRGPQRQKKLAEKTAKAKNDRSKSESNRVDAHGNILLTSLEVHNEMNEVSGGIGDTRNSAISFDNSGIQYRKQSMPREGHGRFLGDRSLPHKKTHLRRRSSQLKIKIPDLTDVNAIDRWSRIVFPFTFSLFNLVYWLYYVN
T1 sequence (P18507 40-475 partner): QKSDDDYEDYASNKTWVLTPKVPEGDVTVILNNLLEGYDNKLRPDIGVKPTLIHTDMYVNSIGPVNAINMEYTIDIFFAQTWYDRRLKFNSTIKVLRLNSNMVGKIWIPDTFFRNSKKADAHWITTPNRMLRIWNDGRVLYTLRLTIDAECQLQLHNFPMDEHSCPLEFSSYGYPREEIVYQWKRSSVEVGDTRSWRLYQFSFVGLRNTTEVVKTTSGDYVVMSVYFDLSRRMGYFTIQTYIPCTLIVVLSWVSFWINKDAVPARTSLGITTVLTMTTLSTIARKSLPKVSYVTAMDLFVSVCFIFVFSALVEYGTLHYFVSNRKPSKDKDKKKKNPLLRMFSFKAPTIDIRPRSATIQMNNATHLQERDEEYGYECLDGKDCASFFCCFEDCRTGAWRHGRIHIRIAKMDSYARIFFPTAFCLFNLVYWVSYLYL

[4] = target: α1β3V290Cγ2L GABAA receptors (Homo sapiens, UniProt P14867+P28472, V315C); details: α1β3V290Cγ2L; pCMBS + maximal GABA; 10 μM ETO, 20 μM PRO, 10 μM ALX
Chain of α1β3V290Cγ2L GABAA receptors (P14867 28-456, stated change not applied): as the sequence (P14867 28-456) above
Chain of α1β3V290Cγ2L GABAA receptors (P28472 26-473 V315C): as the sequence (P28472 26-473 F314C) above, with C289F, V290C counted along it
Chain of α1β3V290Cγ2L GABAA receptors (P18507 40-475 partner): as the sequence (P18507 40-475 partner) above

[5] = target: T1, α1β3F289Cγ2L GABAA receptors; details: β3F289C; […] ETO, 5 μM PRO, […] ALX
[6] = target: T2, α1β3M286Cγ2L GABAA receptors (Homo sapiens, UniProt P14867+P28472, M311C); details: β3M286C; pCMBS + maximal GABA; 10 μM ETO, 20 μM PRO, 10 μM ALX
T2 sequence (P14867 28-456): as the sequence (P14867 28-456) above
T2 sequence (P28472 26-473 M311C): as the sequence (P28472 26-473 F314C) above, with M286C, C289F counted along it
T2 sequence (P18507 40-475 partner): as the sequence (P18507 40-475 partner) above

[7] = target: α1β3L297Cγ2L GABAA receptors (Homo sapiens, UniProt P14867+P28472, L322C); assay: GABA EC5 enhancement by anesthetics, voltage clamp in Xenopus oocytes; details: β3L297C; […] ETO, 5 μM PRO, […] ALX
Chain of α1β3L297Cγ2L GABAA receptors (P14867 28-456): as the sequence (P14867 28-456) above
Chain of α1β3L297Cγ2L GABAA receptors (P28472 26-473 L322C): as the sequence (P28472 26-473 F314C) above, with C289F, L297C counted along it
Chain of α1β3L297Cγ2L GABAA receptors (P18507 40-475 partner): as the sequence (P18507 40-475 partner) above

[8] = target: T2, α1β3M286Cγ2L GABAA receptors; assay: as above; details: β3M286C; […] ETO, 5 μM PRO, […] ALX
[9] = target: α1β3T262Cγ2L GABAA receptors (Homo sapiens, UniProt P14867+P28472, T287C); assay: Substituted cysteine modification-protection; details: pCMBS + maximal GABA, 10 μM ETO, 20 μM PRO
Chain of α1β3T262Cγ2L GABAA receptors (P14867 28-456): as the sequence (P14867 28-456) above
Chain of α1β3T262Cγ2L GABAA receptors (P28472 26-473 T287C): as the sequence (P28472 26-473 F314C) above, with T262C, C289F counted along it
Chain of α1β3T262Cγ2L GABAA receptors (P18507 40-475 partner): as the sequence (P18507 40-475 partner) above

[10] = 10 μM ETO, 20 μM PRO, 10 μM ALX

Chain of α1β3F293Cγ2L GABAA receptors (P14867 28-456): as the sequence (P14867 28-456) above
Chain of α1β3F293Cγ2L GABAA receptors (P28472 26-473 F318C): as the sequence (P28472 26-473 F314C) above, with C289F, F293C counted along it
Chain of α1β3F293Cγ2L GABAA receptors (P18507 40-475 partner): as the sequence (P18507 40-475 partner) above
Chain of α1β3E298Cγ2L GABAA receptors (P14867 28-456): as the sequence (P14867 28-456) above
Chain of α1β3E298Cγ2L GABAA receptors (P28472 26-473 E323C): as the sequence (P28472 26-473 F314C) above, with C289F, E298C counted along it
Chain of α1β3E298Cγ2L GABAA receptors (P18507 40-475 partner): as the sequence (P18507 40-475 partner) above

SMILES	EC5 enhancement compared to wild-type [1]	EC5 enhancement compared to wild-type [2]	effect on apparent rate of pCMBS modification [3, 10]	effect on apparent rate of pCMBS modification [4]	EC5 enhancement compared to wild-type [5]	effect on apparent rate of pCMBS modification [6]	EC5 enhancement compared to wild-type [7]	EC5 enhancement compared to wild-type [8]	effect on apparent rate of pCMBS modification [9]	effect on apparent rate of pCMBS modification ([3]; 50 μM ETO, 100 μM PRO, 50 μM ALX)
CCOC(=O)c1cncn1[C@H](C)c1ccccc1 [ETO, R-Etomidate]	increased	increased	weakly blocked	strongly blocked	reduced	block modification	increased	reduced	unaffected	
CC(C)c1cccc(C(C)C)c1O [PRO, 2,6-diisopropylphenol]	reduced		unaffected	strongly blocked	reduced	block modification		reduced	accelerated	neither 100 μM PRO nor 50 μM ALX inhibited modification

Reference: article PMC5771863 (Anesthesiology, 2018)
